Source: US20120029187A1, “HALOALKYLSULFONANILIDE DERIVATIVE” (Nissan Chemical Industries, Ltd., priority 2009, published 2012)

Columns and labels:
Format in all cases: in vivo
[1] = test system: barnyardgrass; test: Test Example 1: herbicidal effects in preemergence treatment under submerged conditions; conditions: dose 2.52 g/a
Text: (§1) Test on the Herbicidal Effects in Preemergence Treatment on Weeds Under Submerged Conditions
(§2) Alluvial soil was put in 1/30000-are styrol cups and admixed with water so that it was submerged at a depth of 4 cm. In each cup, seeds of barnyardgrass, bulrush and ducksalad were sown together, and rice seedlings at the 2.5-leaf stage were transplanted. On the same day as the seeding, emulsifiable concentrates containing compounds of the present invention formulated in accordance with Formulation Example 2 were applied to the water surfaces at predetermined doses after diluted with water. The cups were placed in a greenhouse at 25 to 30° C. to grow the plants. Three weeks after the application, the herbicidal effects against various plants were determined on the following evaluation scale.
(§3) 5 mortality of 90% or above (nearly complete death)
(§4) 4 mortality of at least 70% and less than 90%
(§5) 3 mortality of at least 40% and less than 70%
(§6) 2 mortality of at least 20% and less than 40%
(§7) 1 mortality of at least 5% and less than 20%
(§8) 0 mortality of less than 5% (almost ineffective)
(§9) A: barnyardgrass, B: bulrush, C: ducksalad, D: large crabgrass, E: giant foxtail, F: wild oat, G: water foxtail, H: Italian ryegrass, I: velvetleaf, J: common ragweed, K: redroot pigweed, L: common lambsquater, M: posumbu knotweed, N: common chickweed, O: beadstraw, a: transplanted rice, b: corn, c: soybean, d: direct-seeded rice, e: wheat, f: sugar beet.
(§10) The doses (g/a) represents the amounts in g per 1 are (a) applied after adjustment of concentration adjustment.

[2] = test system: bulrush; test: as above; conditions: dose 2.52 g/a
Text: as §1, §2, §3, §4, §5, §6, §7, §8, §9, §10

[3] = test system: ducksalad; test: as above; conditions: dose 2.52 g/a
Text: as §1, §2, §3, §4, §5, §6, §7, §8, §9, §10

[4] = test system: transplanted rice; test: Test Example 1: preemergence treatment under submerged conditions, effect on crop; conditions: dose 2.52 g/a
Text: as §1, §2, §3, §4, §5, §6, §7, §8, §9, §10

[5] = test system: barnyardgrass; test: Test Example 2: herbicidal effects during the vegetation period under submerged conditions; conditions: treatment during the vegetation period under submerged conditions; dose 2.52 g/a
Procedure: (§11) Test on the Herbicidal Effects on Weeds During the Vegetation Period Under Submerged Conditions
(§12) Alluvial soil was put in 1/30000-are styrol cups and admixed with water so that it was submerged at a depth of 4 cm. In each cup, seeds of barnyardgrass, bulrush and ducksalad were sown together, and the cups were placed in a greenhouse at 25 to 30° C. to grow the plants. When the barnyardgrass, bulrush and ducksalad reached the 1- or 2-leaf stage, emulsifiable concentrates containing compounds of the present invention formulated in accordance with Formulation Example 2 were applied to the water surfaces at predetermined doses after diluted with water. Three weeks after the application, the herbicidal effects against various plants were determined on the same evaluation scale as in Test Example 1.
as §9, §10

[6] = test system: bulrush; test: as above; conditions: treatment during the vegetation period under submerged conditions; dose 2.52 g/a
Procedure: as §11, §12, §9, §10

[7] = test system: ducksalad; test: as above; conditions: treatment during the vegetation period under submerged conditions; dose 2.52 g/a
Procedure: as §11, §12, §9, §10

[8] = test system: Italian ryegrass; test: Test Example 3: herbicidal effects in soil treatment; conditions: dose 3.2 g/a
Text: (§13) Test on the Herbicidal Effects in Soil Treatment
(§14) Sterilized diluvial soil was put in plastic boxes with a length of 21 cm, a width of 13 cm and a depth of 7 cm, and seeds of barnyardgrass, large crabgrass, giant foxtail, wild oat, blackgrass, velvetleaf, common ragweed, redroot pigweed, common lambsquater, posumbu knotweed, common chickweed corn, soybean, rice, wheat and sugar beet were sown in spots and covered with an about 1.5 cm-thick soil layer. Emulsifiable concentrates containing compounds of the present invention formulated in accordance with Formulation Example 2 were uniformly applied to the soil surfaces at predetermined doses through a small sprayer after dilute with water. Three weeks after the application, the herbicidal effects against various plants were determined on the same evaluation scale as in Test Example 1.
as §9, §10

[9] = test system: barnyardgrass; test: as above; conditions: dose 3.2 g/a
Text: as §13, §14, §9, §10

[10] = test system: common chickweed; test: as above; conditions: dose 3.2 g/a
Text: as §13, §14, §9, §10

[11] = test system: common lambsquater; test: as above; conditions: dose 3.2 g/a
Text: as §13, §14, §9, §10

[12] = test system: common ragweed; test: as above; conditions: dose 3.2 g/a
Text: as §13, §14, §9, §10

[13] = test system: giant foxtail; test: as above; conditions: dose 3.2 g/a
Text: as §13, §14, §9, §10

[14] = test system: large crabgrass; test: as above; conditions: dose 3.2 g/a
Text: as §13, §14, §9, §10

[15] = test system: posumbu knotweed; test: as above; conditions: dose 3.2 g/a
Text: as §13, §14, §9, §10

[16] = test system: redroot pigweed; test: as above; conditions: dose 3.2 g/a
Text: as §13, §14, §9, §10

[17] = test system: water foxtail; test: as above; conditions: dose 3.2 g/a
Text: as §13, §14, §9, §10

[18] = test system: Italian ryegrass; test: Test Example 4: herbicidal effect in foliage treatment; conditions: dose 3.2 g/a, three weeks after application
Text: (§15) Test on the Herbicidal Effect in Foliage Treatment
as §14, with “chickweed,” for “chickweed”, “The boxes were placed in a greenhouse at 25 to 30° C. to grow the plants. After 14 days, emulsifiable” for “Emulsifiable”, “foliage” for “soil surfaces”, “diluted” for “dilute”
as §9, §10

[19] = test system: barnyardgrass; test: as above; conditions: dose 3.2 g/a, three weeks after application
Text: as §15
as §14, with “chickweed,” for “chickweed”, “The boxes were placed in a greenhouse at 25 to 30° C. to grow the plants. After 14 days, emulsifiable” for “Emulsifiable”, “foliage” for “soil surfaces”, “diluted” for “dilute”
as §9, §10

[20] = test system: beadstraw; test: as above; conditions: dose 3.2 g/a, three weeks after application
Text: as §15
as §14, with “chickweed,” for “chickweed”, “The boxes were placed in a greenhouse at 25 to 30° C. to grow the plants. After 14 days, emulsifiable” for “Emulsifiable”, “foliage” for “soil surfaces”, “diluted” for “dilute”
as §9, §10

[21] = test system: common chickweed; test: as above; conditions: dose 3.2 g/a, three weeks after application
Text: as §15
as §14, with “chickweed,” for “chickweed”, “The boxes were placed in a greenhouse at 25 to 30° C. to grow the plants. After 14 days, emulsifiable” for “Emulsifiable”, “foliage” for “soil surfaces”, “diluted” for “dilute”
as §9, §10

[22] = test system: common lambsquater; test: as above; conditions: dose 3.2 g/a, three weeks after application
Text: as §15
as §14, with “chickweed,” for “chickweed”, “The boxes were placed in a greenhouse at 25 to 30° C. to grow the plants. After 14 days, emulsifiable” for “Emulsifiable”, “foliage” for “soil surfaces”, “diluted” for “dilute”
as §9, §10

[23] = test system: common ragweed; test: as above; conditions: dose 3.2 g/a, three weeks after application
Text: as §15
as §14, with “chickweed,” for “chickweed”, “The boxes were placed in a greenhouse at 25 to 30° C. to grow the plants. After 14 days, emulsifiable” for “Emulsifiable”, “foliage” for “soil surfaces”, “diluted” for “dilute”
as §9, §10

[24] = test system: giant foxtail; test: as above; conditions: dose 3.2 g/a, three weeks after application
Text: as §15
as §14, with “chickweed,” for “chickweed”, “The boxes were placed in a greenhouse at 25 to 30° C. to grow the plants. After 14 days, emulsifiable” for “Emulsifiable”, “foliage” for “soil surfaces”, “diluted” for “dilute”
as §9, §10

[25] = test system: large crabgrass; test: as above; conditions: dose 3.2 g/a, three weeks after application
Text: as §15
as §14, with “chickweed,” for “chickweed”, “The boxes were placed in a greenhouse at 25 to 30° C. to grow the plants. After 14 days, emulsifiable” for “Emulsifiable”, “foliage” for “soil surfaces”, “diluted” for “dilute”
as §9, §10

[26] = test system: posumbu knotweed; test: as above; conditions: dose 3.2 g/a, three weeks after application
Text: as §15
as §14, with “chickweed,” for “chickweed”, “The boxes were placed in a greenhouse at 25 to 30° C. to grow the plants. After 14 days, emulsifiable” for “Emulsifiable”, “foliage” for “soil surfaces”, “diluted” for “dilute”
as §9, §10

[27] = test system: redroot pigweed; test: as above; conditions: dose 3.2 g/a, three weeks after application
Text: as §15
as §14, with “chickweed,” for “chickweed”, “The boxes were placed in a greenhouse at 25 to 30° C. to grow the plants. After 14 days, emulsifiable” for “Emulsifiable”, “foliage” for “soil surfaces”, “diluted” for “dilute”
as §9, §10

[28] = test system: velvetleaf; test: as above; conditions: dose 3.2 g/a, three weeks after application
Text: as §15
as §14, with “chickweed,” for “chickweed”, “The boxes were placed in a greenhouse at 25 to 30° C. to grow the plants. After 14 days, emulsifiable” for “Emulsifiable”, “foliage” for “soil surfaces”, “diluted” for “dilute”
as §9, §10

[29] = test system: water foxtail; test: as above; conditions: dose 3.2 g/a, three weeks after application
Text: as §15
as §14, with “chickweed,” for “chickweed”, “The boxes were placed in a greenhouse at 25 to 30° C. to grow the plants. After 14 days, emulsifiable” for “Emulsifiable”, “foliage” for “soil surfaces”, “diluted” for “dilute”
as §9, §10

CC1(C(F)(F)F)CC(=O)N(Cc2ccccc2N(C(=O)C2CC2)S(=O)(=O)C(F)(F)F)CO1 (centres unmarked) [II-48]
A: barnyardgrass, herbicidal effect (evaluation scale 0-5) [1]: 5 (mortality of 90% or above (nearly complete death)) | B: bulrush, herbicidal effect (evaluation scale 0-5) [2]: 5 (mortality of 90% or above (nearly complete death)) | C: ducksalad, herbicidal effect (evaluation scale 0-5) [3]: 5 (mortality of 90% or above (nearly complete death)) | a: transplanted rice, effect on crop (evaluation scale 0-5) [4]: 0 (mortality of less than 5% (almost ineffective)) | A: barnyardgrass, herbicidal effect (evaluation scale 0-5) [5]: 5 (mortality of 90% or above (nearly complete death)) | B: bulrush, herbicidal effect (evaluation scale 0-5) [6]: 5 (mortality of 90% or above (nearly complete death)) | C: ducksalad, herbicidal effect (evaluation scale 0-5) [7]: 5 (mortality of 90% or above (nearly complete death)) | H: Italian ryegrass, herbicidal effect (evaluation scale 0-5) [8]: 0 (mortality of less than 5% (almost ineffective)) | A: barnyardgrass, herbicidal effect (evaluation scale 0-5) [9]: 5 (mortality of 90% or above (nearly complete death)) | N: common chickweed, herbicidal effect (evaluation scale 0-5) [10]: 4 (mortality of at least 70% and less than 90%) | L: common lambsquater, herbicidal effect (evaluation scale 0-5) [11]: 0 (mortality of less than 5% (almost ineffective)) | J: common ragweed, herbicidal effect (evaluation scale 0-5) [12]: 4 (mortality of at least 70% and less than 90%) | E: giant foxtail, herbicidal effect (evaluation scale 0-5) [13]: 4 (mortality of at least 70% and less than 90%) | D: large crabgrass, herbicidal effect (evaluation scale 0-5) [14]: 5 (mortality of 90% or above (nearly complete death)) | M: posumbu knotweed, herbicidal effect (evaluation scale 0-5) [15]: 3 (mortality of at least 40% and less than 70%) | K: redroot pigweed, herbicidal effect (evaluation scale 0-5) [16]: 0 (mortality of less than 5% (almost ineffective)) | G: water foxtail, herbicidal effect (evaluation scale 0-5) [17]: 5 (mortality of 90% or above (nearly complete death)) | H: Italian ryegrass, herbicidal effect [18]: 0 (mortality of less than 5% (almost ineffective)) | A: barnyardgrass, herbicidal effect [19]: 4 (mortality of at least 70% and less than 90%) | O: beadstraw, herbicidal effect [20]: 4 (mortality of at least 70% and less than 90%) | N: common chickweed, herbicidal effect [21]: 3 (mortality of at least 40% and less than 70%) | L: common lambsquater, herbicidal effect [22]: 0 (mortality of less than 5% (almost ineffective)) | J: common ragweed, herbicidal effect [23]: 2 (mortality of at least 20% and less than 40%) | E: giant foxtail, herbicidal effect [24]: 2 (mortality of at least 20% and less than 40%) | D: large crabgrass, herbicidal effect [25]: 1 (mortality of at least 5% and less than 20%) | M: posumbu knotweed, herbicidal effect [26]: 2 (mortality of at least 20% and less than 40%) | K: redroot pigweed, herbicidal effect [27]: 0 (mortality of less than 5% (almost ineffective)) | I: velvetleaf, herbicidal effect [28]: 4 (mortality of at least 70% and less than 90%) | G: water foxtail, herbicidal effect [29]: 2 (mortality of at least 20% and less than 40%)
